Experimental findings from patent publication US20210077529A1, “T-CELL EXHAUSTION, METHODS & COMPOSITIONS RELATING THERETO” (MEMORIAL SLOAN KETTERING CANCER CENTER, priority 2018, published 2021) are described below.

Entries after “also recorded” stand apart in the source; their conditions may differ.

Assay type in all cases: cell-based, mouse
The test system of assay [1] is chronically stimulated T-cells. Nature of the assay: Intracellular ophthalmate levels in chronically stimulated T-cells (LC-MS). The conditions noted are these: chronically stimulated CD3+ T cells, 8 days, 10 mM N-acetylcysteine. How it is done:
FIG. 18A-C. Ophthalmate is a biomarker for oxidative stress in exhausted T-cells and is reversed by N-acetylcysteine. Isolated CD3+ T cells were stimulated acutely or chronically as described herein in the presence or absence of N-acetylcysteine (10 mM). After 8 days, cells were analyzed for intracellular ophthalmate levels by LC-MS. […] Ophthalmate levels were higher in chronically stimulated T-cells (FIG. 18B) and this was reversed by administration of N-acetylcysteine (FIG. 18C).

Assay [2] concerns exhausted CAR-T cells. Kind of assay: Oxidative stress (reactive oxygen species) in exhausted CAR-T cells. Conditions: exhausted CD19 CAR-T cells isolated 14 days after transfer, re-stimulated with anti-CD3 and anti-CD28; 10 mM. From the text: (§1) FIG. 15A-C N-acetylcysteine reverses CAR-T cell exhaustion. Exhausted CAR-T cells were generated by transferring CD19-specific CAR-T cells into mice bearing CD19-expressing A20 lymphoma cells. After 14 days, CAR-T cells were isolated from mouse spleens and interrogated for proliferative capacity, oxidative stress, and cytokine production. […] The in vitro system that developed and described herein allowed for metabolic evaluations that led directly to the identification of oxidative stress as a hallmark of T-cell exhaustion. We therefore evaluated whether adding N-acetylcysteine (10 mM) to T-cell media every 48 hours during days 2-8 of chronic stimulation would be sufficient to reverse the effects of chronic stimulation on T-cell growth and effector function. […] FIGS. 12-16. Moreover, this strategy was also effective in reversing the exhaustion of chimeric antigen receptor (CAR) T-cells. For this assay, T-cells retrovirally infected to express a chimeric antigen receptor targeting CD19 were adoptively transferred into mice who had previously received A20 B-cell lymphoma cells. This protocol is known to generate “exhausted” CAR T-cells by Day 14 following CAR T-cell transfer. […] FIG. 16. To determine this, T-cells that had been acutely or chronically stimulated in the presence or absence of 10 mM N-acetylcysteine were assessed for Tcf7 expression via real-time quantitative PCR. […]

The test system of assay [3] is exhausted CAR-T cells. Kind of assay: Proliferative capacity of exhausted CD19-specific CAR-T cells isolated from lymphoma-bearing mice. The conditions noted are these: exhausted CD19 CAR-T cells isolated 14 days after transfer into A20 lymphoma mice; 10 mM in culture media.
Source text: as §1

Assay [4] concerns Tcf7. Kind of assay: Tcf7 expression in chronically stimulated T-cells (real-time quantitative PCR). The conditions noted are these: chronically stimulated CD3+ T cells, 8 days, 10 mM N-acetylcysteine. From the text: FIG. 16A-B. N-acetylcysteine restores T-cell memory. Isolated CD3+ T cells were stimulated acutely or chronically as described herein. […] Tumor-infiltrating T-cells from patients with melanoma who received checkpoint inhibitors were extracted and analyzed by single-cell RNA-seq. […] The in vitro system that developed and described herein allowed for metabolic evaluations that led directly to the identification of oxidative stress as a hallmark of T-cell exhaustion. We therefore evaluated whether adding N-acetylcysteine (10 mM) to T-cell media every 48 hours during days 2-8 of chronic stimulation would be sufficient to reverse the effects of chronic stimulation on T-cell growth and effector function. […] FIGS. 12-16. Moreover, this strategy was also effective in reversing the exhaustion of chimeric antigen receptor (CAR) T-cells. For this assay, T-cells retrovirally infected to express a chimeric antigen receptor targeting CD19 were adoptively transferred into mice who had previously received A20 B-cell lymphoma cells. This protocol is known to generate “exhausted” CAR T-cells by Day 14 following CAR T-cell transfer. […] FIG. 16. To determine this, T-cells that had been acutely or chronically stimulated in the presence or absence of 10 mM N-acetylcysteine were assessed for Tcf7 expression via real-time quantitative PCR. […]

In assay [5] the test system is chronically stimulated T-cells. Kind of assay: Cytokine production of chronically stimulated T-cells after re-stimulation (flow cytometry). The conditions noted are these: CD3+ T cells, 8 days of culture, N-acetylcysteine 10 mM. How it is done: (§2) FIG. 14A-D. N-acetylcysteine reverses endogenous T-cell exhaustion. Isolated CD3+ T cells were stimulated acutely or chronically as described elsewhere herein in the without anti-PD-L1 (FIG. 14A) or in presence or absence of anti-PD-L1 (FIG. 14B) and/or N-acetylcysteine (10 mM) (FIG. 14C). Following 8 days of culture, cells were re-stimulated for cytokine production (above) or co-cultured with tumor cells expressing specific antigen.
The expression of the inhibitory receptors PD-1, LAG-3, and PD-L1 and the effector cytokines IFNγ, TNFα and IL2 was analyzed by flow cytometry. Briefly, cells that were stimulated acutely or chronically for 8 days as described herein were re-stimulated after overnight rest using 50 ng/mL phorbol myristate acetate (PMA) and 500 ng/mL ionomycin. […]
The in vitro system that developed and described herein allowed for metabolic evaluations that led directly to the identification of oxidative stress as a hallmark of T-cell exhaustion. We therefore evaluated whether adding N-acetylcysteine (10 mM) to T-cell media every 48 hours during days 2-8 of chronic stimulation would be sufficient to reverse the effects of chronic stimulation on T-cell growth and effector function. […] To determine this, T-cells that had been acutely or chronically stimulated in the presence or absence of 10 mM N-acetylcysteine were assessed for Tcf7 expression via real-time quantitative PCR. […]
Background: In flow cytometry, cells or beads pass a laser one at a time.

Assay [6] deals with chronically stimulated T-cells. Kind of assay: Proliferation of chronically stimulated T-cells (polyclonal in vitro exhaustion model, Coulter counter counts). Conditions: CD3+ T cells, chronic anti-CD3/anti-CD28 stimulation days 2-8, 10 mM N-acetylcysteine. As for the experimental part: FIG. 13A-B. N-acetylcysteine restores proliferation of chronically stimulated T-cells. FIG. 13A—schematic representation of model/method. Isolated CD3+ T cells were stimulated for 2 days with plate-bound anti-CD3 and anti-CD28. Following 2-day stimulation, cells were either incubated in IL-2 alone or serially re-plated on plates coated with anti-CD3 and anti-CD28 every 2 days for an additional 6 days in the presence or absence of 10 mM N-acetylcysteine. Cells were counted every 2 days using a Coulter counter. […] FIG. 3A and FIG. 3F provide schematic representations of a polyclonal T cell exhaustion model in which a generalized TCR and CD28 stimulus is used. Utilizing a generalized TCR and CD28 stimulus has multiple advantages. […] We therefore evaluated whether adding N-acetylcysteine (10 mM) to T-cell media every 48 hours during days 2-8 of chronic stimulation would be sufficient to reverse the effects of chronic stimulation on T-cell growth and effector function. […] To determine this, T-cells that had been acutely or chronically stimulated in the presence or absence of 10 mM N-acetylcysteine were assessed for Tcf7 expression via real-time quantitative PCR. […]

Assay [7] deals with tumor cells expressing specific antigen. Kind of assay: Killing of tumor cells expressing specific antigen by chronically stimulated T-cells (co-culture). How it is done: as §2
Ultimately, the hallmark of T-cell exhaustion in the context of both chronic viral infections and cancer requires a loss of effector function, defined as the absence of target cell killing. Therefore, it was imperative to establish that exhausted cells generated using this in vitro system were not able to kill target cells. […] 24 hours later luminescence was measured using a luminometer. Killing efficacy was determined by luminescence relative to B16 cells co-cultured with T-cells in the absence of specific peptide.
The in vitro system that developed and described herein allowed for metabolic evaluations that led directly to the identification of oxidative stress as a hallmark of T-cell exhaustion. We therefore evaluated whether adding N-acetylcysteine (10 mM) to T-cell media every 48 hours during days 2-8 of chronic stimulation would be sufficient to reverse the effects of chronic stimulation on T-cell growth and effector function. […]

Assay [8] deals with exhausted CAR-T cells. Kind of assay: Cytokine production of exhausted CAR-T cells. Conditions: exhausted CD19 CAR-T cells isolated 14 days after transfer; 10 mM.
Source text: as §1

Consider `CC(=O)N[C@@H](CS)C(=O)O` [N-acetylcysteine], for which, in assay [1], the intracellular ophthalmate levels result is listed as “reversed”. Besides, the “oxidative stress (reactive oxygen species) in CAR-T cells” value in assay [2] was “reducing oxidative stress; also recorded: could be reversed”. Further, the CAR-T cell proliferation entry in assay [3] is “enhanced CAR-T cell proliferation; also recorded: allowed CAR T-cells to proliferate”. In assay [4], the “Tcf7 expression (memory marker)” value is “restored Tcf7 expression; also recorded: largely restored”. The “cytokine production of chronically stimulated T-cells” value in assay [5] is on record as “effectively reversed; also recorded: fully reverse”. Further, the “T-cell proliferation under chronic stimulation” value in assay [6] is on record as “fully reverses the impairment in proliferation; also recorded: fully reverse”. For the same molecule, in assay [7] (10 mM N-acetylcysteine every 48 hours during days 2-8 of chronic stimulation), the “anti-PD-1 responsiveness of chronically stimulated T-cells” value was “fully restored”. Moreover, the “tumor / target cell killing by chronically stimulated T-cells” value in assay [7] (8 days of culture, co-cultured with tumor cells expressing specific antigen, N-acetylcysteine 10 mM) is on record as “effectively reversed; also recorded: fully restored”. Also, the “CAR-T cell cytokine production” value in assay [8] is “enhanced; also recorded: allowed CAR T-cells to proliferate and produce cytokine”.
